PMC9995496, “A screen for MeCP2-TBL1 interaction inhibitors using a luminescence-based assay” (Scientific Reports, 2023)
Structures can show the parent of a compound that is named as a salt.

System: PRKACA-PRKAR2A interaction (SmBiT-PRKACA / LgBiT-PRKAR2A), protein kinase A
Set-up: NanoLuc complementation counter-screen in cell extract, PRKACA with PRKAR2A, loss of luminescence, detects NanoLuc interference
Conditions: counter-screen for NanoLuc interference, 0.5 h, 20 µM, inhibitor, Inh (PKA)

| SMILES | Inh (PKA) [%] |
| --- | --- |
| CCCc1nn(C)c2c(=O)[nH]c(-c3cc(S(=O)(=O)N4CCN(C)CC4)ccc3OCC)nc12 [UM0141781:01, Sildenafil Citrate] | 4.187 |
| O=C(O)/C=C/c1ccc(Cn2ccnc2)cc1 [UM0141799:01, Ozagrel] | 1.747 |

Same assay, conditions: counter-screen for NanoLuc interference; 0.5 h, 20 µM; inhibitor

| SMILES | Inh (PKA) [%] |
| --- | --- |
| COC1=CC(c2cc3ccccc3[nH]2)=N/C1=C\c1[nH]c(C)cc1C [UM0141758:01, Obatoclax mesylate (GX15-070)] | 43.77 |
| Cc1cc2c(C(=O)NC[C@H](C)c3ccccc3)c(O)c(O)cc2c(O)c1-c1c(C)cc2c(C(=O)NC[C@H](C)c3ccccc3)c(O)c(O)cc2c1O [UM0141759:01, Sabutoclax] | 12.84 |
| OCc1ccc(-c2ccc(-c3ccc(CO)s3)o2)s1 [UM0141761:01, RITA (NSC 652287)] | 10.18 |
| C/C(=N\NC(=S)N1CCC1)c1ccccn1 [UM0141763:01, NSC 319726] | 3.72 |
| Nc1cccc2c1C(=O)N(C1CCC(=O)NC1=O)C2=O (stereo not shown) [UM0141764:01, Pomalidomide (CC-4047)] | 2.798 |
| CN1C(=O)C(Cc2c[nH]c3ccccc23)NC1=S (stereo not shown) [UM0141765:01, Necrostatin-1] | 5.445 |
| O=C1CCC(N2C(=O)c3ccccc3C2=O)C(=O)N1 (stereo not shown) [UM0141766:01, Thalidomide] | -0.2984 |
| COCC[n+]1c2c(n(Cc3cnccn3)c1C)C(=O)c1ccccc1C2=O [UM0141767:01, YM155] | 0.9715 |
| COc1ccc(C2=N[C@@H](c3ccc(Cl)cc3)[C@@H](c3ccc(Cl)cc3)N2C(=O)N2CCNC(=O)C2)c(OC(C)C)c1 [UM0141768:01, Nutlin-3] | 1.968 |
| CC(C)c1ccccc1Cc1cc(C(=O)Nc2ccc(S(=O)(=O)c3ccccc3C(C)(C)C)cc2)c(O)c(O)c1O [UM0141770:01, TW-37] | 2.732 |
| S=C(NCc1ccc2c(c1)OCO2)N1CCN(c2ncnc3c2oc2ccccc23)CC1 [UM0141771:01, Amuvatinib (MP-470, HPK 56)] | 7.726 |
| C[C@]12CC[C@H](O)CC1=CC[C@@H]1[C@@H]2CC[C@]2(C)C(c3cccnc3)=CC[C@@H]12 [UM0141772:01, Abiraterone] | 5.429 |
| O=C(Nc1ccncc1)c1cc([N+](=O)[O-])ccc1Cl [UM0141773:01, T0070907] | 6.091 |
| Cc1cccc(Nc2cc(Cl)nc(SCC(=O)O)n2)c1C [UM0141774:01, WY-14643 (Pirinixic Acid)] | 22.49 |
| Cc1cc(SCc2sc(-c3ccc(C(F)(F)F)c(F)c3)nc2C)ccc1OCC(=O)O [UM0141775:01, GW0742] | 20.87 |
| CC(C)c1nc(CN(C)C(=O)N[C@@H](CCN2CCOCC2)C(=O)N[C@H](CC[C@H](Cc2ccccc2)NC(=O)OCc2cncs2)Cc2ccccc2)cs1 [UM0141776:01, Cobicistat (GS-9350)] | 4.362 |
| CCOc1cc([C@@H](CS(C)(=O)=O)N2C(=O)c3cccc(NC(C)=O)c3C2=O)ccc1OC [UM0141777:01, Apremilast (CC-10004)] | 1.324 |
| CC(C)c1cc(C(C)C)c(CC(=O)NS(=O)(=O)Oc2c(C(C)C)cccc2C(C)C)c(C(C)C)c1 [UM0141778:01, Avasimibe] | 69.24 |
| O=C(Nc1c(Cl)cncc1Cl)c1ccc(OC(F)F)c(OCC2CC2)c1 [UM0141779:01, Roflumilast] | 21.52 |

| SMILES | Inh (PKA) [%] |
| --- | --- |
| C[C@@H](c1ncncc1F)[C@](O)(Cn1cncn1)c1ccc(F)cc1F [UM0141780:01, Voriconazole] | 0.951 |
| CCCc1nc(C)c2c(O)nc(-c3cc(S(=O)(=O)N4CCN(CC)CC4)ccc3OCC)nn12 [UM0141782:01, Vardenafil HCl Trihydrate] | 3.783 |
| CCc1ccc(CCOc2ccc(CC3SC(=O)NC3=O)cc2)nc1 (stereo not shown) [UM0141783:01, Pioglitazone HCl] | 13.53 |
| Cn1cc(-c2ccncc2)c(-c2ccc(OCc3ccc4ccccc4n3)cc2)n1 [UM0141784:01, PF-2545920] | 39.54 |
| CNC(=O)c1ccc2cc([C@@]3(O)CCn4cncc43)ccc2c1 [UM0141785:01, TAK-700 (Orteronel)] | 0.0216 |
| COc1ccc(C2CNC(=O)C2)cc1OC1CCCC1 (stereo not shown) [UM0141786:01, Rolipram] | -0.06153 |
| COc1ccc([C@H]2CNC(=O)C2)cc1OC1CCCC1 [UM0141786:02, S- (+)-Rolipram] | 3.135 |
| COc1ccc([C@]2(C#N)CC[C@@H](C(=O)O)CC2)cc1OC1CCCC1 [UM0141787:01, Cilomilast] | 0.1397 |
| COc1cccc(Nc2c(C(N)=O)cnc3c(C)cc(S(=O)(=O)c4cccc(C(=O)N(C)C)c4)cc23)c1 [UM0141788:01, GSK256066] | 11.7 |
| NCc1c[nH]c(=S)n1[C@H]1CCc2c(F)cc(F)cc2C1 [UM0141789:01, Nepicastat (SYN-117) HCl] | 5.542 |
| O=C(O)CCCCC(CCSCc1ccccc1)SCc1ccccc1 (stereo not shown) [UM0141790:01, CPI-613] | 31.69 |
| COc1ccc(CNc2nc(N3CCC[C@H]3CO)ncc2C(=O)NCc2ncccn2)cc1Cl [UM0141791:01, Avanafil] | 18.48 |
| COc1c(C)c2c(c(O)c1C/C=C(\C)CCC(=O)OCCN1CCOCC1)C(=O)OC2 [UM0141793:01, Mycophenolate Mofetil] | 3.705 |
| O=C(NC[C@H]1CN(c2ccc(N3CCOCC3=O)cc2)C(=O)O1)c1ccc(Cl)s1 [UM0141794:01, Rivaroxaban] | 3.84 |
| Cc1ccccc1C(C(=O)NC1CCCCC1)N(C(=O)Cn1ccnc1C)c1cccc(F)c1 (stereo not shown) [UM0141795:01, AGI-5198] | 4.354 |
| COc1ccc(-c2nc3cc(C4=NNC(=O)CC4C)ccc3[nH]2)cc1 (stereo not shown) [UM0141796:01, Pimobendan] | 10.77 |
| COc1ccc(-n2nc(C(N)=O)c3c2C(=O)N(c2ccc(N4CCCCC4=O)cc2)CC3)cc1 [UM0141797:01, Apixaban] | 1.88 |
| Oc1cc(O)c(Cl)cn1 [UM0141798:01, Gimeracil] | 0.03154 |
| O=C(O)Cn1nnc(-c2cc(N3CCC(Oc4cc(F)ccc4Br)CC3)no2)n1 [UM0141800:01, MK-8245] | 15.63 |

| SMILES | Inh (PKA) [%] |
| --- | --- |
| C[C@]12CC[C@H]3[C@@H](CC[C@@]45O[C@@H]4C(O)=C(C#N)C[C@]35C)[C@@H]1CC[C@@H]2O [UM0141801:01, Trilostane] | 1.891 |
| C#CCC(Cc1cnc2nc(N)nc(N)c2n1)c1ccc(C(=O)N[C@@H](CCC(=O)O)C(=O)O)cc1 (stereo partly shown) [UM0141802:01, Pralatrexate] | 2.023 |
| O=C(NNc1ccccc1)c1ccncc1 [UM0141803:01, PluriSIn #1 (NSC 14613)] | 1.467 |
| O=C1CN2Cc3c(ccc(Cl)c3Cl)N=C2N1 [UM0141804:01, Anagrelide HCl] | 2.161 |
| CC(C)C[C@@H](C(=O)N[C@H](C(=O)OC1CCCC1)c1ccccc1)[C@H](O)C(=O)NO [UM0141805:01, Tosedostat (CHR2797)] | 5.594 |
| CCc1c(C(=O)C(N)=O)c2c(OCC(=O)O)cccc2n1Cc1ccccc1 [UM0141806:01, Varespladib (LY315920)] | 1.134 |
| NS(=O)(=O)c1ccc(NC(=O)Nc2ccc(F)cc2)cc1 [UM0141807:01, U-104] | 3.096 |
| CC1(C)O[C@@H]2[C@@H](CO[C@@]3(COS(N)(=O)=O)OC(C)(C)O[C@@H]23)O1 [UM0141808:01, Topiramate] | 0.4952 |
| CC(C)n1c(/C=C/[C@@H](O)C[C@@H](O)CC(=O)O)c(-c2ccc(F)cc2)c2ccccc21 [UM0141809:01, Fluvastatin Sodium] | 14.88 |
| C#CCN[C@@H]1CCc2ccccc21 [UM0141810:01, Rasagiline Mesylate] | 2.611 |
| C[C@H](NCc1ccc(OCc2cccc(F)c2)cc1)C(N)=O [UM0141812:01, Safinamide Mesylate] | 2.51 |
| CC[C@H](C)C(=O)O[C@H]1C[C@H](O)C=C2C=C[C@H](C)[C@H](CC[C@@H](O)C[C@@H](O)CC(=O)O)[C@H]21 [UM0141813:01, Pravastatin sodium] | 0.8236 |
| NC(=O)c1cccc(-c2cccc(OC(=O)NC3CCCCC3)c2)c1 [UM0141814:01, URB597] | 16.26 |
| COc1cc(F)c(C(C)C)cc1-c1ccc(C(F)(F)F)cc1CN1C(=O)O[C@H](c2cc(C(F)(F)F)cc(C(F)(F)F)c2)[C@@H]1C [UM0141816:01, Anacetrapib (MK-0859)] | -2.323 |
| CCC(CC)CC1(C(=O)Nc2ccccc2SC(=O)C(C)C)CCCCC1 [UM0141817:01, Dalcetrapib (JTT-705, RO4607381)] | 16.33 |
| Cc1cc(C)c2c(c1)[C@@H](N(Cc1cc(C(F)(F)F)cc(C(F)(F)F)c1)c1nnn(C)n1)CCCN2C[C@H]1CC[C@H](C(=O)O)CC1 [UM0141818:01, Evacetrapib (LY2484595)] | 12.81 |
| CCOC(=O)N1c2ccc(C(F)(F)F)cc2[C@@H](N(Cc2cc(C(F)(F)F)cc(C(F)(F)F)c2)C(=O)OC)C[C@H]1CC [UM0141819:01, Torcetrapib] | 4.254 |
| NC(=O)N1CCC(CC(=O)N2CCC([C@H]3c4ncc(Br)cc4CCc4cc(Cl)cc(Br)c43)CC2)CC1 [UM0141820:01, Lonafarnib] | 11.04 |
